The record followed here is patent publication US20170355705A1 (GlaxoSmithKline Intellectual Property (No.2) Limited, priority 2014, published 2017).

The target of the assay is T1, SIRT1 (Homo sapiens, UniProt Q96EB6).
T1 sequence (Q96EB6 1-747): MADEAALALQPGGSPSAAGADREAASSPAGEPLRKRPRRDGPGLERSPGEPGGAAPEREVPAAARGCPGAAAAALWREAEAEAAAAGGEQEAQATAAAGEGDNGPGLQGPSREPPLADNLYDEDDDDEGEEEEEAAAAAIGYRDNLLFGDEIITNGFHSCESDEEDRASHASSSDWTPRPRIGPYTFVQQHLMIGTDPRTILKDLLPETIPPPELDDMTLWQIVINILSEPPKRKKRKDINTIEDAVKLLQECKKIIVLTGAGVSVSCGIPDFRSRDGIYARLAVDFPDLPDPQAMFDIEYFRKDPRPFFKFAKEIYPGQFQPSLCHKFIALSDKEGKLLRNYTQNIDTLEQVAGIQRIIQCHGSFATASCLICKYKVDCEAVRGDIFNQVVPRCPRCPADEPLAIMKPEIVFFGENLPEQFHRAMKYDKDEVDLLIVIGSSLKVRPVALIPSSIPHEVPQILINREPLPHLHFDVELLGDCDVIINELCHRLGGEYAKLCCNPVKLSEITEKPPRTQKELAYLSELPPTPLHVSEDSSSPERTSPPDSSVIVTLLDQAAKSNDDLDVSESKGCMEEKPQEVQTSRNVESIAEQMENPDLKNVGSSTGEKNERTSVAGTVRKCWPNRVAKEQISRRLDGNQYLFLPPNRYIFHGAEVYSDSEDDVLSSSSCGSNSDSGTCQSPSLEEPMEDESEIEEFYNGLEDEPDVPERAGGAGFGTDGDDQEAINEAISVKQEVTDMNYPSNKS
Kind of assay: Trp mass spectrometry assay of SIRT1 activity (EC1.5, percent maximum activation). The settings on record: Trp mass spectrometry assay; for TRP Activity (EC1.5): EC1.5 = concentration giving 150% activation of SIRT1; for TRP MAX RESP (percent maximum fold activation): percent maximum activation of SIRT1. It is filed as biochemical. The source says: Mass spectrometry based assays were used to identify modulators of SIRT1 activity. […] The peptide was labeled with the fluorophore 5TMR (excitation 540 nm/emission 580 nm) at the C-terminus. The sequence of the peptide substrate was based on p53 with several modifications. In addition, the methionine residue naturally present in the sequence was replaced with the norleucine because the methionine may be susceptible to oxidation during synthesis and purification.
The Trp mass spectrometry assay was conducted as follows. […] The SIRT1 protein was obtained by cloning the SirT1 gene into a T7-promoter containing vector, which was then expressed in BL21(DE3) bacterial cells and purified as described in further detail below. Test compound was added at varying concentrations to this reaction mixture and the resulting reactions were monitored. After the 25 minute incubation with SIRT1, 10 μL of 10% formic acid was added to stop the reaction. The resulting reactions were sealed and frozen for later mass spec analysis. The relative SIRT1 activity was then determined by measuring the amount of O-acetyl-ADP-ribose (OAADPR) formed (or, alternatively, the amount of deacetylated Trp peptide generated) by the NAD-dependent sirtuin deacetylation reaction in the presence of varying concentrations of the test compound versus control reactions lacking the test compound. The degree to which the test agent activated deacetylation by SIRT1 was expressed as EC1.5 (i.e., the concentration of compound required to increase SIRT1 activity by 50% over the control lacking test compound), and Percent Maximum Activation (i.e., the maximum activity relative to control (100%) obtained for the test compound).
This time point was the same as that used for test compounds and, within the linear range, the endpoint represents a change in velocity.
For the above assay, SIRT1 protein was expressed and purified as follows. The SirT1 gene was cloned into a T7-promoter containing vector and transformed into BL21(DE3). The protein was expressed by induction with 1 mM IPTG as an N-terminal His-tag fusion protein at 18° C. overnight and harvested at 30,000×g. Cells were lysed with lysozyme in lysis buffer (50 mM Tris-HCl, 2 mM Tris[2-carboxyethyl]phosphine (TCEP), 10 μM ZnCl2, 200 mM NaCl) and further treated with sonication for 10 min for complete lysis. The protein was purified over a Ni-NTA column (Amersham) and fractions containing pure protein were pooled, concentrated and run over a sizing column (Sephadex S200 26/60 global). The peak containing soluble protein was collected and run on an Ion-exchange column (MonoQ). Gradient elution (200 mM-500 mM NaCl) yielded pure protein. This protein was concentrated and dialyzed against dialysis buffer (20 mM Tris-HCl, 2 mM TCEP) overnight. The protein was aliquoted and frozen at −80° C. until further use.
“NT” means not tested; “ND” means not determinable.

As to `Cc1ccc(-c2nc3c(cc2C)N2CC[C@@H](C2)N3C(=O)Nc2ccccn2)cn1` [Example 8, (4S)-8-methyl-7-(6-methylpyridin-3-yl)-N-(pyridin-2-yl)-3,4-dihydro-1,4-methanopyrido[2,3-b][1,4]diazepine-5(2H)-carboxamide], the “TRP Activity (EC1.5)” value is recorded as “B (EC1.5 1-25 μM)” and the “TRP MAX RESP (percent maximum fold activation)” value is on record as “A (Fold activation ≧150%)”.

For `Cc1ccc(-c2cc(C)c3c(n2)N(C(=O)Nc2ccccn2)[C@H]2CCN3C2)cn1` [Example 9, (4S)-9-methyl-7-(6-methylpyridin-3-yl)-N-(pyridin-2-yl)-3,4-dihydro-1,4-methanopyrido[2,3-b][1,4]diazepine-5(2H)-carboxamide], the “TRP Activity (EC1.5)” value was “B (EC1.5 1-25 μM)” and the “TRP MAX RESP (percent maximum fold activation)” value is given as “A (Fold activation ≧150%)”.

As to `Cc1ccc(-c2nc3c(cc2C#N)N2CC[C@@H](C2)N3C(=O)Nc2cccnc2)cn1` [Example 10, (4S)-8-cyano-7-(6-methylpyridin-3-yl)-N-(pyridin-3-yl)-3,4-dihydro-1,4-methanopyrido[2,3-b][1,4]diazepine-5(2H)-carboxamide], the “TRP Activity (EC1.5)” value is “B (EC1.5 1-25 μM)” and the “TRP MAX RESP (percent maximum fold activation)” value was “A (Fold activation ≧150%)”.

With `Cc1cc(-c2nc3c(cc2Br)N2CC[C@@H](C2)N3C(=O)Nc2ccccn2)ccn1` [Example 11, (4S)-8-bromo-7-(2-methylpyridin-4-yl)-N-(pyridin-2-yl)-3,4-dihydro-1,4-methanopyrido[2,3-b][1,4]diazepine-5(2H)-carboxamide], the “TRP Activity (EC1.5)” value is given as “B (EC1.5 1-25 μM)” and the “TRP MAX RESP (percent maximum fold activation)” value was “A (Fold activation ≧150%)”.

In the case of `Cc1cc(-c2nc3c(cc2Br)N2CC[C@@H](C2)N3C(=O)Nc2cccnc2)ccn1` [Example 12, (4S)-8-bromo-7-(2-methylpyridin-4-yl)-N-(pyridin-3-yl)-3,4-dihydro-1,4-methanopyrido[2,3-b][1,4]diazepine-5(2H)-carboxamide], the “TRP Activity (EC1.5)” value is “B (EC1.5 1-25 μM)” and the “TRP MAX RESP (percent maximum fold activation)” value is given as “A (Fold activation ≧150%)”.

As for `Cc1ccc(-c2cc(C)c3c(n2)N(C(=O)Nc2cccnc2)[C@H]2CCN3C2)cn1` [Example 13, (4S)-9-methyl-7-(6-methylpyridin-3-yl)-N-(pyridin-3-yl)-3,4-dihydro-1,4-methanopyrido[2,3-b][1,4]diazepine-5(2H)-carboxamide], the “TRP Activity (EC1.5)” value is on record as “B (EC1.5 1-25 μM)” and the “TRP MAX RESP (percent maximum fold activation)” value is “A (Fold activation ≧150%)”.

As for `Cc1cc(-c2nc3c(cc2F)N2CC[C@@H](C2)N3C(=O)Nc2cccnc2)ccn1` [Example 14, (4S)-8-fluoro-7-(2-methylpyridin-4-yl)-N-(pyridin-3-yl)-3,4-dihydro-1,4-methanopyrido[2,3-b][1,4]diazepine-5(2H)-carboxamide], the “TRP Activity (EC1.5)” value is on record as “B (EC1.5 1-25 μM)” and the “TRP MAX RESP (percent maximum fold activation)” value was “A (Fold activation ≧150%)”.

As for `Cc1cc(-c2nc3c(cc2F)N2CC[C@@H](C2)N3C(=O)Nc2ccccn2)ccn1` [Example 15, (4S)-8-fluoro-7-(2-methylpyridin-4-yl)-N-(pyridin-2-yl)-3,4-dihydro-1,4-methanopyrido[2,3-b][1,4]diazepine-5(2H)-carboxamide], the “TRP Activity (EC1.5)” value is reported as “A (EC1.5<1 μM)” and the “TRP MAX RESP (percent maximum fold activation)” value is reported as “A (Fold activation ≧150%)”.

For the compound `Cc1ccc(-c2nc3c(cc2Cl)N2CC[C@@H](C2)N3C(=O)Nc2ccccn2)cn1` [Example 16, (4S)-8-chloro-7-(6-methylpyridin-3-yl)-N-(pyridin-2-yl)-3,4-dihydro-1,4-methanopyrido[2,3-b][1,4]diazepine-5(2H)-carboxamide], the “TRP Activity (EC1.5)” value is “B (EC1.5 1-25 μM)” and the “TRP MAX RESP (percent maximum fold activation)” value was “A (Fold activation ≧150%)”.

As to `Cc1cc(-c2nc3c(cc2C)N2CC[C@@H](C2)N3C(=O)Nc2cccnc2)ccn1` [Example 17, (4S)-8-methyl-7-(2-methylpyridin-4-yl)-N-(pyridin-3-yl)-3,4-dihydro-1,4-methano pyrido[2,3-b][1,4]diazepine-5(2H)-carboxamide], the “TRP Activity (EC1.5)” value was “B (EC1.5 1-25 μM)” and the “TRP MAX RESP (percent maximum fold activation)” value was “A (Fold activation ≧150%)”.

For the compound `O=C(Nc1ccnc(O[C@@H]2CCOC2)n1)N1c2nc(-c3cccc(C(F)(F)F)c3)c(Cl)cc2N2CC[C@H]1C2` [Example 18, (4S)-8-chloro-N-(2-(((R)-tetrahydrofuran-3-yl)oxy)pyrimidin-4-yl)-7-(3-(trifluoromethyl)phenyl)-3,4-dihydro-1,4-methanopyrido[2,3-b][1,4]diazepine-5(2H)-carboxamide], the “TRP Activity (EC1.5)” value is on record as “B (EC1.5 1-25 μM)” and the “TRP MAX RESP (percent maximum fold activation)” value is given as “A (Fold activation ≧150%)”.

On to `O=C(Nc1ccnc(O[C@H]2CCOC2)n1)N1c2nc(-c3cccc(C(F)(F)F)c3)c(Cl)cc2N2CC[C@H]1C2` [Example 19, (4S)-8-chloro-N-(2-(((S)-tetrahydrofuran-3-yl)oxy)pyrimidin-4-yl)-7-(3-(trifluoromethyl)phenyl)-3,4-dihydro-1,4-methanopyrido[2,3-b][1,4]diazepine-5(2H)-carboxamide], for which the “TRP Activity (EC1.5)” value was “A (EC1.5<1 μM)” and the “TRP MAX RESP (percent maximum fold activation)” value was “A (Fold activation ≧150%)”.

For the compound `Cc1cc(-c2nc3c(cc2Cl)N2CC[C@@H](C2)N3C(=O)Nc2ccnc(O[C@H]3CCOC3)n2)ccn1` [Example 20, (4S)-8-chloro-7-(2-methylpyridin-4-yl)-N-(2-(((S)-tetrahydrofuran-3-yl)oxy)pyrimidin-4-yl)-3,4-dihydro-1,4-methanopyrido[2,3-b][1,4]diazepine-5(2H)-carboxamide], the “TRP Activity (EC1.5)” value was “C (EC1.5>25 μM)” and the “TRP MAX RESP (percent maximum fold activation)” value is “A (Fold activation ≧150%)”.

Turning to `Cc1cc(-c2nc3c(cc2Cl)N2CC[C@@H](C2)N3C(=O)Nc2ccnc(OC3CCOCC3)n2)ccn1` [Example 21, (4S)-8-chloro-7-(2-methylpyridin-4-yl)-N-(2-((tetrahydro-2H-pyran-4-yl)oxy)pyrimidin-4-yl)-3,4-dihydro-1,4-methanopyrido[2,3-b][1,4]diazepine-5(2H)-carboxamide], the “TRP Activity (EC1.5)” value is “C (EC1.5>25 μM)” and the “TRP MAX RESP (percent maximum fold activation)” value is reported as “B (Fold Activation <150%)”.

On to `Cc1cc(-c2nc3c(cc2Cl)N2CC[C@@H](C2)N3C(=O)Nc2ccnc(O[C@@H]3CCOC3)n2)ccn1` [Example 22, (4S)-8-chloro-7-(2-methylpyridin-4-yl)-N-(2-(((R)-tetrahydrofuran-3-yl)oxy)pyrimidin-4-yl)-3,4-dihydro-1,4-methanopyrido[2,3-b][1,4]diazepine-5(2H)-carboxamide], for which the “TRP Activity (EC1.5)” value was “C (EC1.5>25 μM)” and the “TRP MAX RESP (percent maximum fold activation)” value is reported as “B (Fold Activation <150%)”.
